The text below walks through data of US20240368212A1, “SELECTIVE ISONITRILE INHIBITORS OF CYTOCHROME P450 SUBTYPES” (priority 2021, published 2024).

“Also recorded” adds a separate entry of the source. Like-named read-outs stand apart in the source and are kept apart here. Some results are limits rather than exact numbers.

Data set [1] has as its target T1, CYP17A1 (Homo sapiens, UniProt P05093).
T1 sequence (P05093 1-508): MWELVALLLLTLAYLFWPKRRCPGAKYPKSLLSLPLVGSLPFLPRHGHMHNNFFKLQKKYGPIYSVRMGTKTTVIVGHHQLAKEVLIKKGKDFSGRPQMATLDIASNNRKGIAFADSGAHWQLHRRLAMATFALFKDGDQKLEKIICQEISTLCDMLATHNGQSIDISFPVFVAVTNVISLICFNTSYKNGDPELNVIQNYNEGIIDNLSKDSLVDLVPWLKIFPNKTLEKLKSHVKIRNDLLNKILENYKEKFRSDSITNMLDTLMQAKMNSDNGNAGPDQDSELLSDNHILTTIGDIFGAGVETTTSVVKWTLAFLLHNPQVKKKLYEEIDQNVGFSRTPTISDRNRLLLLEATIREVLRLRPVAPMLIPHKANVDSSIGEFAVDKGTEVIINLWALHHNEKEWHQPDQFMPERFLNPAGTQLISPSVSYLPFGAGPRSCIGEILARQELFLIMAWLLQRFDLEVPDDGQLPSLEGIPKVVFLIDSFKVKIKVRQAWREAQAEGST
As to the kind of experiment: Ligand binding assay, UV-visible difference spectra titration. Particulars: for spectroscopic evidence of binding to CYP17A1 (heme spectral shift): result in words. On the procedure: Ligand binding assays. (Adapted from DeVore, N M, et al. (2009). Drug Metabolism and Disposition, 37(6), 1319-1327.) Ligand interaction with the heme iron was evaluated by titrating ligands into a cuvette containing purified CYP17A1, CYP2D6, or CYP3A4 and measured using a UV-visible scanning spectrophotometer. […] Ligands dissolved in DMSO were added to the sample cuvette and an equal volume of DMSO to the reference cuvette. Difference spectra were recorded from 300-500 nm after equilibration of enzyme and ligand. Binding to the enzyme was measured as the difference in maximal and minimal absorbance: A387-A419 for pregnanolone and 3-formyl pregnanolone, and A435-A393 for 3-formyl pregnanolone-20-isonitrile with CYP17A1; A434-A414 for 3-formyl pregnanolone-20-isonitrile with CYP3A4 and CYP2D6. […] All data fitting was accomplished using GraphPad Prism 9.

Data set [2] concerns the target CYP106A2 (Priestia megaterium, UniProt Q06069). The data set can be described thus: Optical difference spectrum titration of CYP106A2. In kind it is binding, bacterial. As to conditions: result in words. The source says:
FIGS. 3A-3C show the optical difference spectra when various compounds are titrated with CYPs. […] The maximum absorbance was at 430 nm and the trough was at 393 nm. […] The trough was at 418 nm.
Ligand binding assays. […] All data fitting was accomplished using GraphPad Prism 9.

Data set [3] deals with T2, CYP17A1 (Homo sapiens, UniProt P05093).
T2 sequence (P05093 24-508 limits assumed): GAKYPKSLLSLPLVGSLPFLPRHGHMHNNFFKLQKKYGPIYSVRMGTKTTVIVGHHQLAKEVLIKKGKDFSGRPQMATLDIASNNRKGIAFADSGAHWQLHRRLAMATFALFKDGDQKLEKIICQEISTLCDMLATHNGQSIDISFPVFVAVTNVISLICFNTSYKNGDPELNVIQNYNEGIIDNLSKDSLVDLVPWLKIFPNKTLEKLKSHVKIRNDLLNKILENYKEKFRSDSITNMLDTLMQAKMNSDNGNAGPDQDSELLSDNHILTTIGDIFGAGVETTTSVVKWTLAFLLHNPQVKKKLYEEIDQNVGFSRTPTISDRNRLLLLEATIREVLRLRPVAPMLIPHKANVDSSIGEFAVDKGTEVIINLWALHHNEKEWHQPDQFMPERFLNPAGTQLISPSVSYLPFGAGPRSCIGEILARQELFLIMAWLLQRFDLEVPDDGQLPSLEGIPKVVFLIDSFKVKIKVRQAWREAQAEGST
As to the kind of experiment: Inhibition assay, 17α-hydroxylation of progesterone by CYP17A1. Type of data set: biochemical.
Method: (Adapted from DeVore, NM, Scott, EE. (2012). Nature, 482(7383), 116-119.) Metabolic activity of CYP17A1 was evaluated by measuring 17α-hydroxylation of progesterone as detected HPLC with UV detection at 240 nm. A 1:4 ratio of CYP17A1 to recombinant NADPH-cytochrome P450 reductase was mixed and incubated on ice for 20 minutes. […] Reaction vials were warmed to 37° C. for three minutes, then catalysis was initiated by adding NADPH to a final concentration of 1 mM. After 10 minutes, metabolism was quenched by adding 300 μL of 20% trichloroacetic acid and placed on ice. The reaction vials were centrifuged to pellet the precipitated protein, then the supernatant was injected onto a C18 column (Phenomenex, Luna, 50×4.6 mm) for HPLC. The 30-minute HPLC method ran at 0.8 m/min and started with a mobile phase of 60% acetonitrile, 40% water with 0.2% acetic acid for five minutes, increased to 80% acetonitrile over 10 minutes, held at 80% acetonitrile for five minutes, 100% acetonitrile for five minutes, then returned to 60% acetonitrile to prepare for the next sample. Metabolite elution was normalized to β-estradiol as an internal standard. A standard curve of known product concentrations was used to convert normalized area under curve to amount of product produced. […]

Sequence of CYP106A2 (Q06069 whole entry): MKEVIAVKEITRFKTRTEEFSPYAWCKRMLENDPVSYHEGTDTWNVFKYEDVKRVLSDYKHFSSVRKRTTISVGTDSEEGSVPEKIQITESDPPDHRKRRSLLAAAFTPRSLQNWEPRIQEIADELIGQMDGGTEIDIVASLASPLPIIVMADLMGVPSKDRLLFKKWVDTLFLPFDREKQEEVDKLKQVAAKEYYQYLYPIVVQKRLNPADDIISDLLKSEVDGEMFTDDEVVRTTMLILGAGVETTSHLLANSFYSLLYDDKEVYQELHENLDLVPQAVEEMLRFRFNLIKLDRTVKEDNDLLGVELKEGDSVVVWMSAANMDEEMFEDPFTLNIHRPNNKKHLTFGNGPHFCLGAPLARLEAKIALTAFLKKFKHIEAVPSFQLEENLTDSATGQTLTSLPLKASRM

The term Kd denotes the free concentration of one partner at which half of the binding sites on the other are occupied at equilibrium, for simple one-to-one binding. As for `C[C@]12CC[C@H](O)CC1=CC[C@@H]1[C@@H]2CC[C@]2(C)C(c3cccnc3)=CC[C@@H]12` [abiraterone, reference compound], the Kd in data set [1] (CYP17A1 0.2 μM, tight binding, only estimates, read-out: Kd) is under 100 nM.

“3β-formyl-(R)-(20-isonitrilo)pregnane [20-(R)-16]”: the “spectroscopic evidence of binding to CYP106A2 (Fe—CN—R bond formation)” value is given as “no evidence for formation of a Fe—CN—R bonded complex” in data set [2] and “no evidence of binding” in data set [2] (listed as 3). Moreover, the “spectroscopic evidence of binding to CYP17A1 (heme spectral shift)” value in data set [1] is recorded as “binds tightly”.

One may read the IC50 as the concentration at which inhibition is half-maximal. For `[C-]#[N+][C@H](C)[C@H]1CC[C@H]2[C@@H]3CC[C@H]4C[C@@H](OC=O)CC[C@]4(C)[C@H]3CC[C@]12C` [Compound 16], the IC50 in data set [3] (CYP17A1 progesterone hydroxylation, 11.5 μM progesterone) is 1300 nM. The “inhibition of CYP17A1 progesterone hydroxylation” value in data set [3] (result in words, FIG. 5B) is on record as “inhibited”. In data set [1], the Kd was under 100 nM and the “spectroscopic evidence of binding to CYP17A1 (heme spectral shift)” value is listed as “induced the expected heme spectral shift from 417 to 428 nm; also recorded: bound to CYP17A1; also recorded: bind very tightly”.
